Results: patent US5808100A, “Chromene compounds and photochromic materials” (Tokuyama Corporation, priority 1995, dated 1998)
One block for each compound: values may come before it.

Experiments:
[1] = Photochromic properties of polymer (2 mm thick) containing the chromene compound, xenon lamp irradiation 120 seconds; assay type: physicochemical; parameters: key to Color density ε(120)-ε(0): absorbance at λmax after 120 s irradiation minus before, ε(120)-ε(0); conditions: for Color density ε(120)-ε(0): 120 seconds irradiation, 20° C.±1° C.; for Color density ε(120)-ε(0) / ε(0): absorbancy of the polymer not irradiated (initial color): at λmax; for Color fading rate t1/2: time until absorbancy decreases to one-half of [ε(120)-ε(0)]: after 120 seconds irradiation; for Maximum absorption wavelength λMax (developed color tone): polymer after developing color
Description: (§1) 0.05 Parts of the chromene compound obtained in Example 1 was added to 70 parts of a tetraethylene glycol dimethacrylate, 15 parts of a triethylene glycol dimethacrylate, 10 parts of a glycidyl methacrylate and 5 parts of a 2-hydroethyl methacrylate, and was mixed to a sufficient degree. The mixture solution was poured into a mold constituted by a glass plate and a gasket made from an ethylene/vinyl acetate copolymer and then polymerized. The polymerization was conducted by using an air furnace while gradually raising the temperature up to 30° C. to 90° C. over a period of 18 hours, the temperature being maintained at 90° C. for two hours. After the polymerization, the polymer was taken out from the glass mold.
The obtained polymer (2 mm thick) was irradiated with light from a xenon lamp L-2480 (300 W) SHL-100 manufactured by Hamamatsu Photonics Co. through an Aero Mass filter (manufactured by Corning Co.) for 120 seconds under the conditions of 20° C.±1° C., beam intensities of 365 nm=2.4 mW/cm^2 and […]=24 μW/cm^2 on the polymer surface to develop color and to measure photochromic properties. The photochromic properties were expressed as described below.
Maximum absorption wavelength (λmax): λmax of the polymer after it has developed color was found by using a spectrophotometer (instantaneous multi-channel photodetector MCPD1000) manufactured by Otsuka Denshi Kogyo Co.
ε(120): Absorbancy of the polymer using light of a maximum absorption wavelength after it was irradiated under the above-mentioned conditions for 120 seconds.
ε(0): Absorbancy of the polymer that has not been irradiated using light of a wavelength same as the maximum absorption wavelength of light with which the polymer was irradiated.
ε(120)-ε(0): Color density
(§2) Color fading rate [t1/2 ]: Time required by the polymer irradiated for 120 seconds until the absorbancy decreases down to one-half of [ε(120)-ε(0)]. Durability [T1/2 ]: Time required until the absorbency at the maximum absorption wavelength decreases down to 1/2 of the initial absorbency as measured by using a xenon fadometer FAC-25AX-HC manufactured by Suga Shikenki Co.
(§3) The photochromic polymers were obtained in the same manner as described above but using the compounds obtained in Examples 2 to 33 as chromene compounds. For the purpose of comparison, properties of the compounds represented by the following formulas (A), (B), (D) and (E) were also shown in Table 3. [drawing 110]

[2] = Durability T1/2 by xenon fadometer FAC-25AX-HC; assay type: physicochemical; conditions: in polymer
Description: as §1, §2, §3

SMILES: C1=CC(c2ccccc2)(c2ccccc2)Oc2ccc3ccccc3c21 [A, reference compound]
Color density ε(120)-ε(0) [1]: 0.52 | Color fading rate t1/2: time until absorbancy decreases to one-half of [ε(120)-ε(0)] [1]: 0.667 min | ε(0): absorbancy of the polymer not irradiated (initial color) [1]: 0.04 | Maximum absorption wavelength λMax (developed color tone) [1]: 436 nm | Durability T1/2: time until absorbancy at maximum absorption wavelength decreases to 1/2 of the initial [2]: 460 h

SMILES: COc1ccc2c3c(ccc2c1)OC(c1ccccc1)(c1ccccc1)C=C3 [B, reference compound]
Color density ε(120)-ε(0) [1]: 0.74 | Color fading rate t1/2: time until absorbancy decreases to one-half of [ε(120)-ε(0)] [1]: 1.5 min | ε(0): absorbancy of the polymer not irradiated (initial color) [1]: 0.04 | Maximum absorption wavelength λMax (developed color tone) [1]: 472 nm | Durability T1/2: time until absorbancy at maximum absorption wavelength decreases to 1/2 of the initial [2]: 240 h

SMILES: C1=CC(c2ccc3ccccc3c2)(c2ccco2)Oc2ccc3ccccc3c21 (stereo not shown) [Compound 4]
Color density ε(120)-ε(0) [1]: 1.10 | Color fading rate t1/2: time until absorbancy decreases to one-half of [ε(120)-ε(0)] [1]: 0.983 min | ε(0): absorbancy of the polymer not irradiated (initial color) [1]: 0.07 | Maximum absorption wavelength λMax (developed color tone) [1]: 486 nm | Durability T1/2: time until absorbancy at maximum absorption wavelength decreases to 1/2 of the initial [2]: 490 h

SMILES: C1=CC(c2ccoc2)(c2ccco2)Oc2ccc3ccccc3c21 (stereo not shown) [Compound 5]
Color density ε(120)-ε(0) [1]: 1.11 | Color fading rate t1/2: time until absorbancy decreases to one-half of [ε(120)-ε(0)] [1]: 0.833 min | ε(0): absorbancy of the polymer not irradiated (initial color) [1]: 0.07 | Maximum absorption wavelength λMax (developed color tone) [1]: 466 nm | Durability T1/2: time until absorbancy at maximum absorption wavelength decreases to 1/2 of the initial [2]: 540 h

SMILES: C1=CC(c2ccsc2)(c2ccco2)Oc2ccc3ccccc3c21 (stereo not shown) [Compound 6]
Color density ε(120)-ε(0) [1]: 1.02 | Color fading rate t1/2: time until absorbancy decreases to one-half of [ε(120)-ε(0)] [1]: 0.75 min | ε(0): absorbancy of the polymer not irradiated (initial color) [1]: 0.07 | Maximum absorption wavelength λMax (developed color tone) [1]: 464 nm | Durability T1/2: time until absorbancy at maximum absorption wavelength decreases to 1/2 of the initial [2]: 520 h

SMILES: Cn1cccc1C1(c2ccc3ccccc3c2)C=Cc2c(ccc3ccccc23)O1 (stereo not shown) [Compound 8]
Color density ε(120)-ε(0) [1]: 1.00 | Color fading rate t1/2: time until absorbancy decreases to one-half of [ε(120)-ε(0)] [1]: 1 min | ε(0): absorbancy of the polymer not irradiated (initial color) [1]: 0.06 | Maximum absorption wavelength λMax (developed color tone) [1]: 486 nm | Durability T1/2: time until absorbancy at maximum absorption wavelength decreases to 1/2 of the initial [2]: 440 h

SMILES: C1=CC(c2ccsc2)(c2cc3ccccc3o2)Oc2cc(N3CCCCC3)c3ccccc3c21 (stereo not shown) [Compound 10]
Color density ε(120)-ε(0) [1]: 1.33 | Color fading rate t1/2: time until absorbancy decreases to one-half of [ε(120)-ε(0)] [1]: 1.37 min | ε(0): absorbancy of the polymer not irradiated (initial color) [1]: 0.10 | Maximum absorption wavelength λMax (developed color tone) [1]: 460 nm | Durability T1/2: time until absorbancy at maximum absorption wavelength decreases to 1/2 of the initial [2]: 510 h

SMILES: COc1ccc2c3c(ccc2c1)OC(c1ccc2ccccc2c1)(c1cnco1)C=C3 (stereo not shown) [Compound 11]
Color density ε(120)-ε(0) [1]: 1.36 | Color fading rate t1/2: time until absorbancy decreases to one-half of [ε(120)-ε(0)] [1]: 1.23 min | ε(0): absorbancy of the polymer not irradiated (initial color) [1]: 0.05 | Maximum absorption wavelength λMax (developed color tone) [1]: 476 nm | Durability T1/2: time until absorbancy at maximum absorption wavelength decreases to 1/2 of the initial [2]: 490 h

SMILES: CCOc1c(C2(c3ccco3)C=Cc3c(ccc4cc(OC)c(C(C)=O)cc34)O2)ccc2ccccc12 (stereo not shown) [Compound 12]
Color density ε(120)-ε(0) [1]: 1.34 | Color fading rate t1/2: time until absorbancy decreases to one-half of [ε(120)-ε(0)] [1]: 1.1 min | ε(0): absorbancy of the polymer not irradiated (initial color) [1]: 0.08 | Maximum absorption wavelength λMax (developed color tone) [1]: 510 nm | Durability T1/2: time until absorbancy at maximum absorption wavelength decreases to 1/2 of the initial [2]: 450 h

SMILES: C1=CC(c2ncco2)(c2csc3ccccc23)Oc2ccc3cc(Cc4ccccc4)ccc3c21 (stereo not shown) [Compound 13]
Color density ε(120)-ε(0) [1]: 1.02 | Color fading rate t1/2: time until absorbancy decreases to one-half of [ε(120)-ε(0)] [1]: 1.03 min | ε(0): absorbancy of the polymer not irradiated (initial color) [1]: 0.07 | Maximum absorption wavelength λMax (developed color tone) [1]: 480 nm | Durability T1/2: time until absorbancy at maximum absorption wavelength decreases to 1/2 of the initial [2]: 490 h

SMILES: COc1ccc2ccc3c(c2c1)C=CC(c1ccco1)(c1coc2ccccc12)O3 (stereo not shown) [Compound 14]
Color density ε(120)-ε(0) [1]: 1.06 | Color fading rate t1/2: time until absorbancy decreases to one-half of [ε(120)-ε(0)] [1]: 1 min | ε(0): absorbancy of the polymer not irradiated (initial color) [1]: 0.07 | Maximum absorption wavelength λMax (developed color tone) [1]: 484 nm | Durability T1/2: time until absorbancy at maximum absorption wavelength decreases to 1/2 of the initial [2]: 480 h

SMILES: COc1ccc2c3c(ccc2c1)OC(c1cncs1)(c1cscc1C)C=C3 (stereo not shown) [Compound 19]
Color density ε(120)-ε(0) [1]: 1.46 | Color fading rate t1/2: time until absorbancy decreases to one-half of [ε(120)-ε(0)] [1]: 1.25 min | ε(0): absorbancy of the polymer not irradiated (initial color) [1]: 0.06 | Maximum absorption wavelength λMax (developed color tone) [1]: 490 nm | Durability T1/2: time until absorbancy at maximum absorption wavelength decreases to 1/2 of the initial [2]: 450 h

SMILES: CC(=O)Oc1ccc2c3c(ccc2c1)OC(c1ccc(C)s1)(c1cccc2ccccc12)C=C3 (stereo not shown) [Compound 20]
Color density ε(120)-ε(0) [1]: 1.42 | Color fading rate t1/2: time until absorbancy decreases to one-half of [ε(120)-ε(0)] [1]: 1.48 min | ε(0): absorbancy of the polymer not irradiated (initial color) [1]: 0.05 | Maximum absorption wavelength λMax (developed color tone) [1]: 506 nm | Durability T1/2: time until absorbancy at maximum absorption wavelength decreases to 1/2 of the initial [2]: 480 h

Next, values leading:

Color density ε(120)-ε(0) [1]: 1.50 | Color fading rate t1/2: time until absorbancy decreases to one-half of [ε(120)-ε(0)] [1]: 1.2 min | ε(0): absorbancy of the polymer not irradiated (initial color) [1]: 0.04 | Maximum absorption wavelength λMax (developed color tone) [1]: 456 nm | Durability T1/2: time until absorbancy at maximum absorption wavelength decreases to 1/2 of the initial [2]: 510 h
SMILES: Fc1c(C2(c3cccs3)C=Cc3c(ccc4ccccc34)O2)ccc2ccccc12 (stereo not shown) [Compound 1]

Color density ε(120)-ε(0) [1]: 1.49 | Color fading rate t1/2: time until absorbancy decreases to one-half of [ε(120)-ε(0)] [1]: 1.38 min | ε(0): absorbancy of the polymer not irradiated (initial color) [1]: 0.08 | Maximum absorption wavelength λMax (developed color tone) [1]: 496 nm | Durability T1/2: time until absorbancy at maximum absorption wavelength decreases to 1/2 of the initial [2]: 480 h
SMILES: C1=CC(c2ccco2)(c2cccc3ccccc23)Oc2ccc3ccccc3c21 (stereo not shown) [Compound 3]

Color density ε(120)-ε(0) [1]: 1.30 | Color fading rate t1/2: time until absorbancy decreases to one-half of [ε(120)-ε(0)] [1]: 1.03 min | ε(0): absorbancy of the polymer not irradiated (initial color) [1]: 0.05 | Maximum absorption wavelength λMax (developed color tone) [1]: 456 nm | Durability T1/2: time until absorbancy at maximum absorption wavelength decreases to 1/2 of the initial [2]: 500 h
SMILES: Fc1sccc1C1(c2ccc3ccccc3c2)C=Cc2c(ccc3ccccc23)O1 (stereo not shown) [Compound 7]

Color density ε(120)-ε(0) [1]: 1.09 | Color fading rate t1/2: time until absorbancy decreases to one-half of [ε(120)-ε(0)] [1]: 0.7 min | ε(0): absorbancy of the polymer not irradiated (initial color) [1]: 0.06 | Maximum absorption wavelength λMax (developed color tone) [1]: 466 nm | Durability T1/2: time until absorbancy at maximum absorption wavelength decreases to 1/2 of the initial [2]: 485 h
SMILES: C1=CC(c2ccc3ccccc3c2)(c2nccs2)Oc2ccc3ccccc3c21 (stereo not shown) [Compound 16]

Color density ε(120)-ε(0) [1]: 1.23 | Color fading rate t1/2: time until absorbancy decreases to one-half of [ε(120)-ε(0)] [1]: 1.4 min | ε(0): absorbancy of the polymer not irradiated (initial color) [1]: 0.05 | Maximum absorption wavelength λMax (developed color tone) [1]: 502 nm | Durability T1/2: time until absorbancy at maximum absorption wavelength decreases to 1/2 of the initial [2]: 470 h
SMILES: COc1ccc2c3c(ccc2c1)OC(c1cccs1)(c1cccc2ccccc12)C=C3 (stereo not shown) [Compound 17]

Color density ε(120)-ε(0) [1]: 1.15 | Color fading rate t1/2: time until absorbancy decreases to one-half of [ε(120)-ε(0)] [1]: 1.13 min | ε(0): absorbancy of the polymer not irradiated (initial color) [1]: 0.04 | Maximum absorption wavelength λMax (developed color tone) [1]: 456 nm | Durability T1/2: time until absorbancy at maximum absorption wavelength decreases to 1/2 of the initial [2]: 505 h
SMILES: Fc1ccsc1C1(c2ccc3ccccc3c2)C=Cc2c(ccc3ccccc23)O1 (stereo not shown) [Compound 18]

Color density ε(120)-ε(0) [1]: 1.35 | Color fading rate t1/2: time until absorbancy decreases to one-half of [ε(120)-ε(0)] [1]: 1.17 min | ε(0): absorbancy of the polymer not irradiated (initial color) [1]: 0.05 | Maximum absorption wavelength λMax (developed color tone) [1]: 450 nm | Durability T1/2: time until absorbancy at maximum absorption wavelength decreases to 1/2 of the initial [2]: 470 h
SMILES: CC(C)(C)Oc1ccc2ccc3c(c2c1)C=CC(c1cccs1)(c1ccc2ccccc2c1Cl)O3 (stereo not shown) [Compound 21]
